In patent US20100227853A1, “INHIBITORS OF CYCLIC AMP PHOSPHODIESTERASES” (Trustees of Boston College, priority 2008, published 2010):

Tests used:
PDE4A1 = biological target: T1, PDE4A1 (Mus musculus, UniProt O89084); test: 5FOA growth assay (high throughput screen, ED50) in fission yeast strain expressing PDE4A1; type: cell-based; conditions: high throughput 5FOA growth screen; greater than 8.53 = statistically-significant inhibitor
T1 construct: targets used in the assays are full-length proteins (as opposed to simply the catalytic domain); expressed in transfected cells; host or cells: Schizosaccharomyces pombe, PDE gene integrated in place of cgs2
T1 sequence (O89084 1-610 isoform O89084-2): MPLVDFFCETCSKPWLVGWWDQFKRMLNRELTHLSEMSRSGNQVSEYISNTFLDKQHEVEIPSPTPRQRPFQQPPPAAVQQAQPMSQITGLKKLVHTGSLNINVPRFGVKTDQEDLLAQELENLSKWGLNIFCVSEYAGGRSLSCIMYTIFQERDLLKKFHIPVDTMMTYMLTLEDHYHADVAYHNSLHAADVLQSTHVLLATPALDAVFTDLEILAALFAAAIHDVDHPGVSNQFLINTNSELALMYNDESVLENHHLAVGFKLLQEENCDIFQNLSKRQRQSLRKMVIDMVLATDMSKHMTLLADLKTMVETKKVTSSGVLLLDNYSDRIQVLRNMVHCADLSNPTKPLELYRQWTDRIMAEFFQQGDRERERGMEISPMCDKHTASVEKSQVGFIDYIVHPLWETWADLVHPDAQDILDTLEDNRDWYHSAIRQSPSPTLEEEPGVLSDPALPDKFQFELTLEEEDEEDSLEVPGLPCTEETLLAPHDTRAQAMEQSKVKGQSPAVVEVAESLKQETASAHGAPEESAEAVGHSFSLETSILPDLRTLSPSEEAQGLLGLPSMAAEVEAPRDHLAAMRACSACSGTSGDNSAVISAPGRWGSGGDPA
Experimental: (§1) High throughput drug screens were carried out at the Broad Institute's Chemical Biology Program screening facility (Broad Institute, Cambridge, Mass.). Depending upon the strain, cultures were pregrown to exponential phase in EMM complete medium containing from 0.5 to 2.5 mM cAMP to repress fbp1-ura4 transcription. […] Starting cell concentrations ranged from 0.5×10^5 to 4×10^5 cells/ml depending on the screening strain. […] Other positive control dishes contained 5 mM cAMP in the 5FOA medium. Cultures were grown for 48 hours at 30° C., sealed in an airtight container with moist paper towels to prevent evaporation. Optical densities (OD600) of cultures were measured using a microplate reader. Bioinformatic analysis of the results to determine composite Z scores was performed as previously described^30, 31.
(§2) To determine whether the 5FOA growth phenotype could be exploited for high throughput drug screening, strains expressing PDE2A, PDE4A, PDE4B, or PDE8A were pre-grown in EMM medium containing cAMP and then transferred to 5FOA medium in 384 well microtiter plates in the presence or absence of cAMP. OD600 measurements were taken after 48 hours incubation at 30° C.
(§3) Cells were pregrown in EMM medium [MP Biomedicals (Solon, Ohio), 3% glucose, filter-sterilized to avoid carmelization, which would introduce variability into the optical density of the medium] containing from 0 mM to 2.5 mM cAMP (or either 0.5 mM or 1.0 mM cGMP). This was to repress expression of the fbp1-ura4 reporter prior to exposure of cells to 5FOA medium. Cells were grown at 30° C. to exponential phase (approximately 10^7 cells/ml). […] Starting cell concentrations ranged from 0.5×10^5 to 4×10^5 cells/ml depending on the screening strain. […] Other positive control dishes contained 5 mM cAMP in the 5FOA medium for PDEs that lack appropriate control compounds. Cultures were grown for 48 hours at 30° C., sealed in an airtight container with moist paper towels to prevent evaporation. Optical densities (OD600) of cultures were measured using a microplate reader. Bioinformatic analysis of the results to determine composite Z scores was performed as previously described (1, 3).

PDE4B3 = biological target: T2, PDE4B3 (Mus musculus, UniProt Q8VBU5); test: 5FOA growth assay in fission yeast strain expressing PDE4B3; type: cell-based, Murine; conditions: for Composite Z score, PDE4B3: high throughput 5FOA growth screen
T2 construct: targets used in the assays are full-length proteins (as opposed to simply the catalytic domain); expressed in transfected cells; host or cells: Schizosaccharomyces pombe, PDE gene integrated in place of cgs2
T2 sequence (Q8VBU5 1-721): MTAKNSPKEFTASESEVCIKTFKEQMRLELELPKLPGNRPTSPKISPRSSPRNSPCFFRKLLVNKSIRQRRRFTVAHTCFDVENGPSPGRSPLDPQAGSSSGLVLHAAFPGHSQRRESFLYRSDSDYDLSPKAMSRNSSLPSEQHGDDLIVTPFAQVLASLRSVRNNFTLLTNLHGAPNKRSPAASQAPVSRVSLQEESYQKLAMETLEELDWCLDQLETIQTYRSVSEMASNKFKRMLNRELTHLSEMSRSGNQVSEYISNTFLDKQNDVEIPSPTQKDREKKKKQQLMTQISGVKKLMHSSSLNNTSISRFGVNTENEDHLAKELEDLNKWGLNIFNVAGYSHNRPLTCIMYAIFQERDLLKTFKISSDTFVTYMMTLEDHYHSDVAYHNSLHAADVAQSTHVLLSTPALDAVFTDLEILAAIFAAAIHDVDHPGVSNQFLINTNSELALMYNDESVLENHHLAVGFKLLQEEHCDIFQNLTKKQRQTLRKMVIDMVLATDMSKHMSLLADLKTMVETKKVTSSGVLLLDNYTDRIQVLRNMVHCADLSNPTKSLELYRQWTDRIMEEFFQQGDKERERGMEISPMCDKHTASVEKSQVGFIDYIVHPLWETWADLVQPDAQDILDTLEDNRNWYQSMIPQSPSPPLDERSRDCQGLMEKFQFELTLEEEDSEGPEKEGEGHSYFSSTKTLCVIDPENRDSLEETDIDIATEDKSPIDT
Experimental: as §1, §2, §3

Compound | Composite Z score, PDE4A1 (PDE4A1) | Composite Z score, PDE4B3 (PDE4B3) | 1 Assay (20 uM) 4B3 (PDE4B3; 20 uM) [ND ND ND ND]
CC1CCc2c(sc3nc(SCC(N)=O)nc(NCc4ccccc4)c23)C1 (stereo not shown) [Compound 1157L22] | 2.3434 |  | 
COCCCNC(=O)c1sc2ncnc(N3CCc4ccccc4C3)c2c1C [Compound 1159M19] | 5.0576 |  | 
COc1ccccc1C(=O)Nc1ncnc2sc3c(c12)CCCC3 [Compound 1415M01] | 1.7784 | 1.1976 | 
CCN1CCN(c2nc(C)nc3sc4c(c23)CCC4)CC1 [Compound 1414C06] | 1.6242 | 0.632 | 
CCC(CO)Nc1nc(C)nc2sc3c(c12)CCC3 (stereo not shown) [Compound 1380M03] | −1.217 | −2.398 | 
CCC(CO)Nc1nc(C)nc2sc3c(c12)CCCC3 (stereo not shown) [Compound 1426O11] | 0.4682 | 0.0693 | 
CC(C)(C)C(=O)Nc1ncnc2sc3c(c12)CCCC3 [Compound 1379O22] | 1.5734 | −0.703 | 
Cc1c(C(=O)Nc2ccc3c(c2)OCO3)sc2ncnc(N3CCc4ccccc4C3)c12 [Compound 1159C21] | 3.9976 |  | 
Cc1c(C(=O)NCc2ccco2)sc2ncnc(N3CCc4ccccc4C3)c12 [Compound 1159I19] | 26.235 |  | 
c1cn(CCCNc2ncnc3sc4c(c23)CCCC4)cn1 [1435 E20] | 1.6661 | 0.5336 | 
CCOC(=O)CNC(=O)c1sc2ncnc(N3CCN(c4ccccc4F)CC3)c2c1C [Compound 1159A19] | 2.4477 |  | 
N#CC1(c2ccccc2)CCc2c(sc3ncnc(N4CCCC4)c23)C1 (stereo not shown) [Compound 1380I09] | 1.2506 | −1.076 | 
Cc1c(C(=O)NCC2CCCO2)sc2ncnc(N3CCN(c4ccccc4F)CC3)c12 (stereo not shown) [Compound 1159M17] | 1.9801 |  | 
CCC(CO)Nc1nc(C)nc2sc3c(c12)CCC3 (stereo not shown) [Compound 1422J17] | 0.1866 | −0.936 | 
CCNc1nc(C)nc2sc3c(c12)CCCC3 [Compound 1410G03] | 2.9506 | 2.8289 | 
Cc1c(C(=O)NCC2CCCO2)sc2ncnc(N3CCN(c4ccccc4)CC3)c12 (stereo not shown) [1159 E19] | 1.0613 |  | 
c1cncc(CNc2ncnc3sc4c(c23)CCCC4)c1 [Compound 1423I22] | 1.7161 | 0.501 | 
C=CCNc1ncnc2sc3c(c12)CCCC3 [Compound 1435C20] | 8.4736 | 31.009 | 
CN(C)CCCNc1ncnc2sc3c(c12)CCCC3 [Compound 1414C02] | 1.6456 | 21.25 | 
CCN(CC)c1ncnc2sc3c(c12)CCC(C#N)(c1ccccc1)C3 (stereo not shown) [Compound 1380G04] | 20.429 | −0.752 | 
CCOC(=O)CSc1nc(NC)c2c3c(sc2n1)CCCC3 [Compound 1439B09] | 0.5702 | 1.2391 | 
Cc1c(C(=O)N2CCC3(CC2)OCCO3)sc2ncnc(N(C)c3ccccc3)c12 [1393 E07] | 3.1682 | −1.206 | 

Compound | Composite Z score, PDE4A1 (PDE4A1) | Composite Z score, PDE4B3 (PDE4B3) | 1 Assay (20 uM) 4B3 (PDE4B3; 20 uM) [ND ND ND ND]
CC(C)N(C)c1ncnc2sc3c(c12)CCC3 [Compound 1407G21] | 12.819 | 0.0445 | 
COc1cc(NC(=O)c2sc3nc(C)nc(N4CCCCC4C)c3c2C)cc(OC)c1OC (stereo not shown) [Compound 1159M15] | 17.363 |  | 
O=C(O)C(Cc1ccccc1)Nc1ncnc2sc3c(c12)CCC3 (stereo not shown) [Compound 1381O17] | −0.467 | 0.3352 | 
CCOC(=O)c1sc2nc(CC(=O)OC)nc(NCCN3CCOCC3)c2c1C [Compound 1158A03] | 0.3744 |  | 
COC(=O)c1ccccc1NC(=O)c1sc2ncnc(N3CCN(c4ccccn4)CC3)c2c1C [Compound 1159K09] | 0.5937 |  | 
COc1cc(NC(=O)c2sc3nc(C)nc(N4CCOCC4)c3c2C)cc(OC)c1OC [Compound 1159O09] | 0.8757 |  | 
Cc1nc(N2CC(C)OC(C)C2)c2c3c(sc2n1)CCC3 (stereo not shown) [Compound 1421B05] | 2.1932 | 5.4669 | 
CCOC(=O)c1sc2ncnc(N3CCc4ccccc4C3)c2c1C [Compound 1379L18] | −0.753 | 1.8207 | 
Cc1nc(N2CCN(C)CC2)c2c(C)c(C(=O)N3CCN(c4cccc(Cl)c4)CC3)sc2n1 [Compound 1158G03] | −0.078 |  | 
COC(=O)Cc1nc(N2CCC(C)CC2)c2c3c(sc2n1)CCCC3 [Compound 1392J18] | 10.795 | 0.7173 | 
CC(C)C(Nc1ncnc2sc3c(c12)CCC3)C(=O)O (stereo not shown) [Compound 1381A19] | 1.3339 | 0.2365 | 
O=C(Nc1ncnc2sc3c(c12)CCCC3)C(F)(F)F [Compound 1406P09] | 0.1456 | 0.5128 | 
Cc1c(C(=O)NCc2ccco2)sc2ncnc(N3CCN(c4ccccc4F)CC3)c12 [Compound 1159O17] | 3.616 |  | 
CCCCNC(=O)c1sc2ncnc(N3CCc4ccccc4C3)c2c1C [Compound 1159K19] | 5.4376 |  | 
Cc1sc2ncnc(NCCc3ccc4c(c3)OCCO4)c2c1C [Compound 1426G17] | 10.127 | 25.393 | 
Cc1c(C(=O)NCc2ccco2)sc2ncnc(N3CCN(c4ccccc4)CC3)c12 [Compound 1159G19] | 7.7398 |  | 
CCN(CC)CCCNC(=O)c1sc2ncnc(N3CCN(c4ccc(OC)cc4)CC3)c2c1C [Compound 1158C03] | 2.6937 |  | 
CCOC(=O)c1sc2ncnc(N3CCC4(CC3)OCCO4)c2c1C [Compound 1159G15] | 5.3411 |  | 
COCCNC(=O)c1sc2ncnc(N3CCN(c4ccccn4)CC3)c2c1C [Compound 1159M09] | 1.1811 |  | 
Cc1c(C(=O)NCc2ccccn2)sc2ncnc(N3CCc4ccccc4C3)c12 [Compound 1159O19] | 11.945 |  | 
N#Cc1sc(C(N)=O)c(-c2ccco2)c1-c1ccco1 [1449, A02] |  |  | 1.8244
COCCCNC(=O)c1sc2ncnc(N3CCN(c4ccccc4F)CC3)c2c1C [Compound 1159C19] | 2.6846 |  | 
